Test results published in ChEMBL document CHEMBL1201862, “PubChem BioAssay data set” (2004).
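Values below derive from 48-hour exposures of cells grown in 96-well plates, with endpoints linearly interpolated between the two concentrations bracketing the appropriate inhibition level. GI50 marks 50% less growth.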 Activity calls are given as the source filed them. Cut-off read from the data, not from the text of the source: active = GI50 up to about 1.1 µM and inactive = higher.

Tests used:
Assay in all cases: growth of human tumour cells (NCI), 48 h
SN12C = tested on: SN12C
SNB-75 = tested on: SNB-75
HL-60 = tested on: HL-60
SK-MEL-5 = tested on: SK-MEL-5
COLO 205 = tested on: COLO 205
UO-31 = tested on: UO-31
NCI/ADR-RES = tested on: NCI/ADR-RES
OVCAR-5 = tested on: OVCAR-5
HOP-62 = tested on: HOP-62
TK-10 = tested on: TK-10
NCI-H23 = tested on: NCI-H23
SK-MEL-28 = tested on: SK-MEL-28
K562 = tested on: K562
RXF 393 = tested on: RXF 393
U-251 = tested on: U-251
CAKI-1 = tested on: CAKI-1
MOLT-4 = tested on: MOLT-4
A549 = tested on: A549
CCRF-CEM = tested on: CCRF-CEM
KM12 = tested on: KM12

Row | Compound | GI50 (SN12C) | GI50 (SNB-75) | GI50 (HL-60) | GI50 (SK-MEL-5) | GI50 (COLO 205) | GI50 (UO-31) | GI50 (NCI/ADR-RES) | GI50 (OVCAR-5) | GI50 (HOP-62) | GI50 (TK-10) | GI50 (NCI-H23) | GI50 (SK-MEL-28) | GI50 (K562) | GI50 (RXF 393) | GI50 (U-251) | GI50 (CAKI-1) | GI50 (MOLT-4) | GI50 (A549) | GI50 (CCRF-CEM) | GI50 (KM12)
1 | COc1nc(Cl)nc(N[C@H](C)c2c3ccccc3cc3ccccc23)n1 | 0.879 µM (active) | 21.8 µM (inactive) | 19.1 µM (inactive) | 5.38 µM (inactive) | 14.4 µM (inactive) | 16.9 µM (inactive) | 14.2 µM (inactive) | 17.3 µM (inactive) | 14.9 µM (inactive) | 0.807 µM (active) | 16.9 µM (inactive) | 2.3 µM (inactive) | 8.49 µM (inactive) | 12.5 µM (inactive) | 16.4 µM (inactive) | 11.6 µM (inactive) | 14.1 µM (inactive) | 27.7 µM (inactive) | 10.4 µM (inactive) | 11.7 µM (inactive)
2 | CCN(CC)CCCNC(=O)c1ccccc1Nc1c(Cl)cccc1Cl | 14.2 µM (inactive) | 3.43 µM (inactive) | 3.18 µM (inactive) | 2.96 µM (inactive) | 12.7 µM (inactive) | 6.79 µM (inactive) |  | 11.7 µM (inactive) | 11.9 µM (inactive) | 11.3 µM (inactive) | 16.6 µM (inactive) | 2.94 µM (inactive) | 6.76 µM (inactive) | 8.11 µM (inactive) |  |  | 11.8 µM (inactive) | 15.7 µM (inactive) | 6.32 µM (inactive) | 
3 | Nc1nc(N)nc(-c2ccccc2NS(=O)(=O)c2ccc([N+](=O)[O-])cc2)n1 | 97.3 µM (inactive) | > 52.2 µM (inactive) | 19.3 µM (inactive) | 29 µM (inactive) | 17.9 µM (inactive) | > 54.8 µM (inactive) | 17.3 µM (inactive) | > 100 µM (inactive) | > 100 µM (inactive) |  | 37.2 µM (inactive) | > 100 µM (inactive) | > 10 µM (inactive) | > 52 µM (inactive) | > 84.9 µM (inactive) |  | > 54.5 µM (inactive) | > 91.2 µM (inactive) | 27.5 µM (inactive) | 84.9 µM (inactive)
4 | COc1ccc2[nH]c(C(=O)N3CC(CCl)c4c3cc(N)c3ccccc43)cc2c1 (stereo not given) | < 0.01 µM (active) | < 0.01 µM (active) | < 0.01 µM (active) | < 0.01 µM (active) | < 0.0105 µM (active) | < 0.01 µM (active) | < 0.01 µM (active) | < 0.01 µM (active) | < 0.01 µM (active) | < 0.01 µM (active) | < 0.01 µM (active) | 0.0142 µM (active) | < 0.01 µM (active) | < 0.01 µM (active) | < 0.01 µM (active) | < 0.01 µM (active) | < 0.01 µM (active) | < 0.01 µM (active) | < 0.01 µM (active) | < 0.01 µM (active)
5 | O=C1CN2Cc3cc(N4CCOCC4)ccc3N=C2N1 | 63.5 µM (inactive) | 31.5 µM (inactive) | 72.6 µM (inactive) | 27.8 µM (inactive) | 32.1 µM (inactive) | 33.4 µM (inactive) | 31.3 µM (inactive) | 87.3 µM (inactive) | 47.1 µM (inactive) | > 100 µM (inactive) | 20.3 µM (inactive) | > 100 µM (inactive) | 2.91 µM (inactive) | 73.3 µM (inactive) | 39.4 µM (inactive) | 56.5 µM (inactive) | 25 µM (inactive) |  | 5.43 µM (inactive) | 43.3 µM (inactive)
6 | Cc1ccc(NC(=O)CC(=O)n2nc(-c3ccccc3)c(/N=N/c3ccccc3C(=O)O)c2-c2ccccc2)cc1 | > 100 µM (inactive) |  |  | > 100 µM (inactive) | > 100 µM (inactive) | 28.8 µM (inactive) |  | > 100 µM (inactive) | > 100 µM (inactive) | 38.6 µM (inactive) |  | > 100 µM (inactive) | > 100 µM (inactive) | > 100 µM (inactive) |  | > 100 µM (inactive) | 4.4 µM (inactive) | > 100 µM (inactive) |  | > 100 µM (inactive)
7 | O=c1cnn(C/C=C/CP(=O)(O)O)c(=O)[nH]1 | > 100 µM (inactive) | > 100 µM (inactive) | > 100 µM (inactive) | > 100 µM (inactive) | 80 µM (inactive) | > 100 µM (inactive) | > 100 µM (inactive) | > 100 µM (inactive) | > 100 µM (inactive) | > 100 µM (inactive) | > 100 µM (inactive) | > 100 µM (inactive) | > 100 µM (inactive) | > 100 µM (inactive) | > 100 µM (inactive) | > 100 µM (inactive) |  | > 100 µM (inactive) | > 10 µM (inactive) | > 100 µM (inactive)
8 | CCOC(=O)C(C)OC(=O)c1ccc(C)cc1 (stereo not given) | > 100 µM (inactive) | > 100 µM (inactive) | > 100 µM (inactive) | > 100 µM (inactive) | > 100 µM (inactive) | > 100 µM (inactive) |  | > 100 µM (inactive) |  | > 100 µM (inactive) | > 100 µM (inactive) | > 100 µM (inactive) | 64.1 µM (inactive) | > 100 µM (inactive) | > 100 µM (inactive) |  | > 100 µM (inactive) | > 100 µM (inactive) | > 100 µM (inactive) | > 100 µM (inactive)
9 | Cc1cccc2sc(-c3ccc(O)cc3)nc12 | 18.2 µM (inactive) | 12.6 µM (inactive) | 15.9 µM (inactive) | 5.81 µM (inactive) | 14.9 µM (inactive) | 13.6 µM (inactive) | 19.3 µM (inactive) | 16.4 µM (inactive) |  | 22.5 µM (inactive) | 16.5 µM (inactive) | 18.5 µM (inactive) | 33.3 µM (inactive) | 16.9 µM (inactive) | 19.3 µM (inactive) | 16.5 µM (inactive) | 43.7 µM (inactive) | 12.8 µM (inactive) | 16.9 µM (inactive) | 15.5 µM (inactive)
10 | O=C(O)CC/C(=N\Nc1nsc2ccccc12)c1ccccc1 | 38.1 µM (inactive) | 0.82 µM (active) | 25.4 µM (inactive) | 79.6 µM (inactive) | > 100 µM (inactive) | > 100 µM (inactive) |  | > 100 µM (inactive) | 97.5 µM (inactive) | > 100 µM (inactive) | 27.2 µM (inactive) | 34.6 µM (inactive) | 26.8 µM (inactive) | 39.1 µM (inactive) | 39.1 µM (inactive) |  | 23.4 µM (inactive) | > 100 µM (inactive) | 26.6 µM (inactive) | > 100 µM (inactive)
